# According to patent US20240326697A1, “SOLID FORMS OF SELECTIVE ANDROGEN RECEPTOR MODULATORS” (priority 2007, published 2024):
# Marks after values point to notes of the source that are not given here.
# Assays:
# Assay type in all cases: physicochemical
# [1] = Water solubility of solid forms A and B′ (suspension shaken, filtered, HPLC; residue by Raman); conditions: for Solid residue: Raman, rough estimate
# Experimental: During the following experiments: suspension equilibration, precipitation experiment, recrystallization, relative stability experiments and water solubility experiment, a filtration step was conducted. Centrifugal filter devices: Ultrafree-CL (0.22 la,m), Millipore; Centrifuge type or Eppendorf 5804R were used at a temperature of 22° C. and centrifugation program of 2 min 3000 rpm.
# HPLC was used to analyse the purity of S-1. HP 1090M HPLC machine was used with the following conditions: • Column: Symmetry Shield RP18, 3.9×150 mm, 5 μm • Column temperature: 35° C. • Injection volume: 10 μL • Solvent: acetonitrile+water 1:1 v/v • Mobile phase A: 0.1% TFA-water • Mobile phase B: 0.1% TFA-acetonitrile • Flow rate: 1 mL/min. • Detection: UV at 271 nm • Run time: 21 min. • Retention time (S-1): 10.7 min.
# Suspensions of the solid forms (25 or 50 mg in 3.5 or 7.0 ml bidistilled water) were shaken (800 rpm) and filtered after 0.5 h, 1.5 h, 4 h and 20 h. After filtration the solid residue was checked by Raman spectroscopy and the concentration in the clear solution was determined by HPLC.
# [2] = Suspension equilibration experiments; conditions: stirred 20 h/23° C.
# Experimental: Suspension equilibration experiments were carried out with 81-128 mg of the compound. The suspensions were stirred with a magnetic stirrer. The samples obtained after filtration were air dried at ambient temperature for a short time only to prevent possible desolvation of labile hydrates or solvates.
# [3] = Relative stability of polymorphic forms under humid conditions (storage, DSC)
# Experimental: (§1) Thermal analysis was carried out with a Perkin Elmer DSC7 with the following experimental conditions: 3 to 6 mg sample mass, closed gold sample pan, temperature range −50° C. to 120° C., heating rate 20 K/min. The samples were weighed in air or dry N2 atmosphere. Additional thermal analysis was conducted using a TA Instruments Q1000 DSC using hermetic aluminum pans under various conditions.
# Polymorph A stays stable in its A form for at least 7 days under storage conditions of ambient temperature/75% RH (Relative Humidity), ambient temperature/100% RH, 30° C./75% RH and 50° C./0% RH.
# In fact, polymorph D in the presence of moisture acts as the seed for the crystallization process and drives the transformation of polymorphs A and B′ into D, similar to its role in seeding the A to D crystallization in dry conditions. […] The amount of polymorph D initially added to the sample is very small that it isn't detectable by the DSC with heating rate of 10° C./min. […] The transformation process is speeded up in FIG. 17G (b) by storing the sample in water at 50° C. […] Further work has shown that the A and B′ convert to D in the presence of moisture at lower temperatures also albeit at slower rates.
# [4] = Dynamic vapor sorption (DVS); conditions: 25° C.
# Experimental: Dynamic vapor sorption quantification relates the mass of water absorbed and subsequently desorbed during the crystallization process. In order to define whether batch P1, P2 and P4 are hydrated polymorphs, DVS measurements were conducted (FIG. 9). A sample (13 to 14 mg) was placed on a Pt pan, and the sample was allowed to equilibrate at 25° C./50% r.h. before starting a pre-defined humidity program (1.0 hours 50%, from 50% r.h. to 95% r.h.: 5% r.h./hour, 10 hours at 95% r.h., from 95% r.h. to 0% r.h.: 5% r.h./hour, 10 hours at 0% r.h., from 0% r.h. to 50% r.h.: 5% r.h./hour, 1 hours at 50% r.h.
# [5] = Relative stability of polymorphic forms under dry conditions (heating, micronization)
# Experimental: as §1
# Thus forms A and B″ can be considered to be practically stable at ambient temperature. […] Micronization of the polymorph A particles under dry conditions also produced ˜25% conversion to B″.
# [6] = Measurement of the approximate solubility (solvent added in steps to the solid); conditions: 23 °C, read-out: Solubility
# Experimental: To determine the approximate solubility at room temperature, the solvent was added in steps to the solid material. After every addition, the sample was well stirred. The addition of solvent was continued until complete dissolution or until 15 ml of solvent was added.
# [7] = Water vapor sorption (humidity chamber) and aqueous suspension, form produced; conditions: for form B′ formed: powder stored in humidified chamber 96% r.h./23° C. (room temperature), 11 weeks, Raman and DSC
# Experimental: The compound was stored in a glass tube under 96% r.h. (relative humidity) in a humidity chamber at room temperature. After different time of storage Raman measurements were conducted using hermetically closed glass tubes.
structure (smiles),measurement,setting,value
"C[C@](O)(COc1ccc(C#N)cc1)C(=O)Nc1ccc(C#N)c(C(F)(F)F)c1 [Form A, (S)-N-(4-cyano-3-(trifluoromethyl)phenyl)-3-(4-cyanophenoxy)-2-hydroxy-2-methylpropanamide]",solubility in water,"[1]; 22° C., stated as embodiment",0.023 to 0.027 mg/mL
same,Solid residue,"[1]; water, 22° C., 0.5 h",A + B′ (approx. 95% + 5%) ^c)
same,Solid residue,"[1]; water, 22° C., 1.5 h",A + B′ (approx. 90% + 10%) ^c)
same,Solid residue,"[1]; water, 22° C., 4.0 h",A + B′ (approx. 85% + 15%) ^c)
same,Solid residue,"[1]; water, 22° C., 20 h",A + B′ (approx. 75% + 25%) ^c)
same,pH of the solution,"[1]; water, 22° C., 20 h suspension equilibration",^d) pH of the solution: 8.7
same,solubility,"[1]; water, 22° C., suspension equilibration time 0.5 h, mean of two measurements (±standard deviation)",21.0 ± 3.9 mg/1000 ml
same,solubility,"[1]; water, 22° C., suspension equilibration time 1.5 h, mean of two measurements (±standard deviation)",24.0 ± 1.4 mg/1000 ml
same,solubility,"[1]; water, 22° C., suspension equilibration time 1.5 h, mean of two measurements (±standard deviation), listed as A",24.0±1.4 mg/1000 ml
same,solubility,"[1]; water, 22° C., suspension equilibration time 4.0 h, mean of two measurements (±standard deviation)",27.6 ± 1.5 mg/1000 ml
same,solubility,"[1]; water, 22° C., suspension equilibration time 20 h, mean of two measurements (±standard deviation)",24.5 ± 1.7 ^d) mg/1000 ml
same,solubility,"[1]; water, 22 °C, water, thermodynamic from solid, stated as embodiment, read-out: solubility in water",0.02 to 0.03 mg/mL
same,Form produced,[2]; ethyl formate + n-pentane 1:2 v/v 112/2.0 mg/ml,no transformation of solid form A
same,Form produced,[2]; methyl acetate + n-pentane 1:2 v/v 126/2.0 mg/ml,no transformation of solid form A
same,"solid form change, seeded with a small amount of D","[3]; 50° C./75% RH, after 24 hours",most of the polymorph form A has been converted to B′ but a small amount of sample has also been converted to D
same,time stable in its A form on storage,"[3]; each of ambient temperature/75% RH, ambient temperature/100% RH, 30° C./75% RH and 50° C./0% RH",at least 7 days
same,stable through (storage time),[3]; stored at 25° C./60% RH,≥ 36 months
same,stable through (storage time),[3]; stored at 30° C./65% RH,≥ 9 months
same,solid form change on storage,[3]; stored at 40° C./75% RH,converts to B′ when stored at 40° C./75% RH within one month
same,solid form change on storage,"[3]; stored at 40° C./75% RH, listed as polymorph A",converted to B′ within one month
same,solid form change on storage,[3]; stored at 50° C./75% RH,converts to B′
same,"solid form change, seeded with a small amount of D","[3]; stored in water at 50° C., after 6 hours",converted to both B′ and D
same,"solid form change, seeded with a small amount of D","[3]; stored in water at 50° C., by 24 hours",predominantly in form D
same,maximum water content at 93% r.h.,[4],1.5%
same,solid form change on heating,[5]; heating to 110° C. in the presence of D,rearrange into D
same,conversion to B″,[5]; micronization of the particles under dry conditions,~25%
same,solubility,"[6]; 1,4-dioxane, organic solvent or mixture, thermodynamic from solid, 1,4-dioxane, 23° C.",> 200 mg/mL
same,solubility,"[6]; TBME, organic solvent or mixture, thermodynamic from solid, TBME, 23° C.",> 200 mg/mL
same,solubility,"[6]; THF, organic solvent or mixture, thermodynamic from solid, THF, 23° C.",> 200 mg/mL
same,solubility,"[6]; THF/n-heptane 1:1 v/v, organic solvent or mixture, thermodynamic from solid, THF/n-heptane 1:1 v/v, 23° C.",> 200 mg/mL
same,solubility,"[6]; THF/n-heptane 1:3 v/v, organic solvent or mixture, thermodynamic from solid, THF/n-heptane 1:3 v/v, 23° C.",65 mg/mL
same,solubility,"[6]; acetic acid, organic solvent or mixture, thermodynamic from solid, acetic acid, 23° C.",> 200 mg/mL
same,solubility,"[6]; acetone, organic solvent or mixture, thermodynamic from solid, acetone, 23° C.",> 200 mg/mL
same,solubility,"[6]; acetone/n-heptane 1:1 v/v, organic solvent or mixture, thermodynamic from solid, acetone/n-heptane 1:1 v/v, 23° C.",> 200 mg/mL
same,solubility,"[6]; acetone/n-heptane 1:3 v/v, organic solvent or mixture, thermodynamic from solid, acetone/n-heptane 1:3 v/v, 23° C.",90 mg/mL
same,solubility,"[6]; acetonitrile, organic solvent or mixture, thermodynamic from solid, acetonitrile, 23° C.",> 200 mg/mL
same,solubility,"[6]; acetonitrile/toluene 1:1 v/v, organic solvent or mixture, thermodynamic from solid, acetonitrile/toluene 1:1 v/v, 23° C.",> 200 mg/mL
same,solubility,"[6]; acetonitrile/toluene 1:3 v/v, organic solvent or mixture, thermodynamic from solid, acetonitrile/toluene 1:3 v/v, 23° C.",170 mg/mL
same,solubility,"[6]; dichloromethane, organic solvent or mixture, thermodynamic from solid, dichloromethane, 23° C.",> 200 mg/mL
same,solubility,"[6]; ethanol, organic solvent or mixture, thermodynamic from solid, ethanol, 23° C.",> 200 mg/mL
same,solubility,"[6]; ethanol/n-heptane 1:1 v/v, organic solvent or mixture, thermodynamic from solid, ethanol/n-heptane 1:1 v/v, 23° C.",180 mg/mL
same,solubility,"[6]; ethanol/n-heptane 1:3 v/v, organic solvent or mixture, thermodynamic from solid, ethanol/n-heptane 1:3 v/v, 23° C.",50 mg/mL
same,solubility,"[6]; ethanol/water 1:1 v/v, aqueous with cosolvent or surfactant or cyclodextrin, thermodynamic from solid, ethanol/water 1:1 v/v, 23° C.",50 mg/mL
same,solubility,"[6]; ethanol/water 1:3 v/v, aqueous with cosolvent or surfactant or cyclodextrin, thermodynamic from solid, ethanol/water 1:3 v/v, 23° C.",< 5 mg/mL
same,solubility,"[6]; ethanol/water 3:1 v/v, aqueous with cosolvent or surfactant or cyclodextrin, thermodynamic from solid, ethanol/water 3:1 v/v, 23° C.",> 200 mg/mL
same,solubility,"[6]; ethyl acetate, organic solvent or mixture, thermodynamic from solid, ethyl acetate, 23° C.",> 200 mg/mL
same,solubility,"[6]; ethyl acetate/n-heptane 1:1 v/v, organic solvent or mixture, thermodynamic from solid, ethyl acetate/n-heptane 1:1 v/v, 23° C.",65 mg/mL
same,solubility,"[6]; ethyl acetate/n-heptane 1:2 v/v, organic solvent or mixture, thermodynamic from solid, ethyl acetate/n-heptane 1:2 v/v, 23° C. (B′: solid form transformation into solid form A)",9 mg/mL
same,solubility,"[6]; ethyl acetate/n-heptane 1:3 v/v, organic solvent or mixture, thermodynamic from solid, ethyl acetate/n-heptane 1:3 v/v, 23° C. (turbid solution)",< 5 mg/mL
same,solubility,"[6]; ethyl acetate/n-pentane 1:2 v/v, organic solvent or mixture, thermodynamic from solid, ethyl acetate/n-pentane 1:2 v/v, 23° C.",13 mg/mL
same,solubility,"[6]; ethyl formate/n-pentane 1:2 v/v, organic solvent or mixture, thermodynamic from solid, ethyl formate/n-pentane 1:2 v/v, 23° C.",12 mg/mL
same,solubility,"[6]; methyl acetate/n-pentane 1:2 v/v, organic solvent or mixture, thermodynamic from solid, methyl acetate/n-pentane 1:2 v/v, 23° C.",8 mg/mL
same,solubility,"[6]; toluene, organic solvent or mixture, thermodynamic from solid, toluene, 23° C. (turbid solution)",< 6 mg/mL
same,form B′ formed,[7]; listed as A,~20% form B′
same,form B′ formed,[7]; listed as form A,approx. 20%
same,Form produced,"[7]; powder stored in humidified chamber 96% r.h./23° C., 4 weeks",A + small
same,Form produced,"[7]; powder stored in humidified chamber 96% r.h./23° C., 9 weeks",A + form B′
same,Form produced,"[7]; suspension in water 111/5.0 mg/ml, sonication 5 min., stirred 19 h/37° C., filtered & air dried",B′
same,Form produced,"[7]; water + 5% acetic acid v/v 105/2.0 mg/ml, stirred 17 h/40° C., cooled to R.T. and removed solution",B′
same,Form produced,"[7]; water + 5% ethanol v/v 123/2.1 mg/ml, stirred 3 h/83° C., cooled to 47° C. within 1.5 h, filtered & air dried",B′
